Entries after “also recorded” stand apart in the source; their conditions may differ.
System: contractile myotubes
Assay: Veratridine added to electrically stimulated myotubes on microcantilevers, AFM laser detection
Assay type: cell-based, rat
Design: dose or concentration left out as unconfirmed
Conditions: myotubes 10 days in culture, 1 Hz stimulus, veratridine final concentration
Protocol: Skeletal muscle was dissected from the hind limb thighs of a rat fetus at embryonic day 18 (Charles River Laboratories, Wilmington, Mass.) according to a previously published protocol with some modification. Tissue samples were collected in a sterile 15-ml centrifuge tube containing 1 ml of calcium and magnesium free phosphate buffered saline (PBS). Tissue samples were enzymatically disassociated using 3 ml of 0.05% of trypsin-EDTA (Invitrogen, Carlsbad, Calif.) solution for 60 min in a 37° C. water bath with agitation of 100 rpm. After 60 min, the trypsin solution was removed and 6 ml of L15 media (Invitrogen, Carlsbad, Calif.) containing 10% fetal bovine serum (FBS) was added to terminate the trypsin action. The tissue was then mechanically triturated using a sterile narrow bore Pasteur pipette, allowed to settle for 3 min, and transferred to a 15-ml centrifuge tube. This was repeated three times. The dissociated tissue was then centrifuged at 300 g for 10 minutes at 4° C. on 6 ml of a 4% (wt/vol) cushion of bovine serum albumin (BSA). The pellet was resuspended in 10 ml L15+10% FBS and plated in uncoated 100-mm Petri dishes for 20-30 min depending on the amount of tissue, to allow contaminating fibroblasts to settle out. After 20-30 minutes the supernatant was layered on 6 ml of a 4% BSA cushion, and centrifuged at 300 g for 10 min at 4° C. […]

SMILES: COc1ccc(C(=O)O[C@H]2CC[C@@]3(C)[C@@H]4CC[C@H]5[C@]6(O)C[C@H](O)[C@@]7(O)[C@@H](CN8C[C@@H](C)CC[C@H]8[C@@]7(C)O)[C@]6(O)C[C@@]53O[C@]24O)cc1OC [veratridine]
- ability to contract after the initial tetanic contraction: lost the ability to contract further; also recorded: lost the ability to further contract

From patent US10386360B2, “Bio-microelectromechanical system transducer and associated methods” (University of Central Florida Research Foundation, Inc., priority 2009, dated 2019)
